Test results reported in patent publication US9073879B2, “Oxazole derivatives useful as modulators of FAAH” (MERCK SHARP & DOHME CORP., priority 2010, dated 2015).

Columns and labels:
human FAAH [1] = biological target: T1, human FAAH (Homo sapiens, UniProt O00519); assay: FAAH cell lysate assay (human lysate, FAAH_CHO, AAMCA substrate); format: biochemical; details: lysate of CHO cells expressing human FAAH; read-out: human lysate_IC50
T1 construct: The full length FAAH was subcloned into the mammalian expression vector, pcDEF.neo, using XbaI and EcoRI restriction sites; expressed in transfected cells
T1 sequence (O00519 1-579): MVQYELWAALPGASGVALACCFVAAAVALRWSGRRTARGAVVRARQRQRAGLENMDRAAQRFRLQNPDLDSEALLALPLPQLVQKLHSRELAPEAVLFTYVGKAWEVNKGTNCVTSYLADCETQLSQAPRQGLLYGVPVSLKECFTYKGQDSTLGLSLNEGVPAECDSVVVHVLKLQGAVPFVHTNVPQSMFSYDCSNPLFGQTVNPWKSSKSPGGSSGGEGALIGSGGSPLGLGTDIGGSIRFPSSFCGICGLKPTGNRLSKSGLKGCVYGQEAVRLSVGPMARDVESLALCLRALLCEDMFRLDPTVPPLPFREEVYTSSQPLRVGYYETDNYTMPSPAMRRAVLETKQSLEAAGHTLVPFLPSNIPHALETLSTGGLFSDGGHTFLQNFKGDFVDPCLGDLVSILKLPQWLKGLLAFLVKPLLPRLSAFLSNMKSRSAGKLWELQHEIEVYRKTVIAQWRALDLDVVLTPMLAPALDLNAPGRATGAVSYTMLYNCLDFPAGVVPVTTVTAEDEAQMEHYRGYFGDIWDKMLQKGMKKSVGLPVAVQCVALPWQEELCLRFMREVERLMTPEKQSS
Excerpt: (§1) To assist in assay development stable cell lines for human, murine and rat full length FAAH were developed. Human FAAH cDNA (Accession No: NM_001441.1) was purchased from Origene (Rockville, Md.). The full length FAAH was subcloned into the mammalian expression vector, pcDEF.neo, using XbaI and EcoRI restriction sites and used for stable cell line generation.
CHO cells expressing FAAH were used to prepare either crude cell lysate or microsome fractions. To harvest cells, tissue culture media was decanted, the monolayer washed three times with Ca^++Mg^++ free PBS and cells recovered after 15 mm in enzyme free dissociation media (Millipore Corp, Billerica, Mass.). Cells were collected by centrifuging at 2000 rpm for 15 min. and the cell pellet re-suspended with 50 mM HEPES (pH 7.4) containing 1 mM EDTA and the protease inhibitors aprotinin (1 mg/ml) and leupeptin (100 μM). The suspension was sonicated at 4° C. and the cell lysate recovered after centrifuging at 12,000×g (14,600 rpm, SS34 rotor) for 20 min at 4° C. to form a crude pellet of cell debris, nuclei, peroxisomes, lysosomes, and mitochondria; the supernatant or cell lysate was used for FAAH enzyme assay. In some cases, microsomes fractions enriched in FAAH were prepared by centrifuging the cell lysate further at 27,000 rpm (100,000×g) in SW28 rotor for 50 minutes at 4° C. The pellet containing FAAH-enriched microsomes was re-suspend in 50 mM HEPES, (pH 7.4) 1 mM EDTA, and any remaining DNA sheared by passage of material through a 23 gauge needle and aliquots of enzyme were store at −80° C. prior to use.
(American Radiolabeled Chemicals; 1 mCi/ml) with FAAH (Life Sciences (1995), 56, 1999-2005 and Journal of Pharmacology and Experimented Therapeutics (1997), 283, 729-734), Analytical. Biochemistry (2003), 318:270-5. In addition, routine assays were performed monitoring hydrolysis of araehidonyl-7-amino-4-methylcoumarin amide (AAMCA) by following increase in fluorescence upon release of 7-amino 4-methyl coumarin (λEX=355 nm, (λEM=460 nm). Analytical. Biochemistry (2005). 343:143-51
(§2) Assays are performed on either cell lysate or microsome fractions prepared as described or in whole cell format employing either the fluorescent substrate AAMCA (Cayman chemical, Ann Arbor, Mich.) or ^3H-anandamide ([ETHANOLAMINE-1-3H] American Radiolabeled Chemicals; 1 mCi/ml). The cell lysate or microsome assay is performed in black PerkinElmer OptiPlates-384F by adding FAAH_CHO (whole cell (shown as human Whole cell or Human WC), cell lysate (shown as human lysate of human LY) or microsome) in assay buffer (50 mM Phosphate, pH 8.0, 1 mM EDTA, 200 mM KCl, 0.2% glycerol, 0.1% fatty acid free BSA) to each well, followed by either DMSO or compound and allowed to incubate at 22-25° C. for fifteen minutes. AAMCA substrate was used to achieve a final concentration of 1 μM and reaction allowed to proceed at room temperature for 1-3 hours. Fluorescent release as a measure of FAAH activity was monitored by reading the plate in an Envision plate Reader (Ex: 360/40 nM; Em: 460/40 nM). Whole cell assay is conducted with cells harvested after rinsing tissue culture flasks three times with Ca^++Mg^++ free PBS, incubating for 10 min in Enzyme free dissociation media and centrifuging for 5 minutes at 1,000 rpm in table top centrifuge. Cells are resuspended in assay buffer at desired cell number in (4×10^4 cells/assay in 96-well format; 1×10^4 cells/assay in 384-well format) and assayed as described.

human FAAH [2] = biological target: T1, human FAAH; assay: FAAH whole cell assay (human Whole cell, FAAH_CHO, AAMCA substrate); format: cell-based; details: CHO cells expressing human FAAH, whole cell format; read-out: human cell_IC50
Excerpt: as §1
Murine (accession number NM_010173) and Rat FAAH (accession number NM_024132) was amplified by reverse transcriptase polymerase chain reaction (RT-PCR) from brain cDNA (BD Biosciences, San Jose, Calif.) using primers 1 and 2 or primers 1 and 3 respectively (see Table). The resulting PCR product was ligated into pCR4 TOPO and DNA sequence confirmed. The full length murine FAAH was subcloned into the mammalian expression vector, pcDEFneo using either EcoRI (murine) or KpnI and EcoRI (rat) restriction sites. Chinese hamster ovary cells (CHO) were transfected following manufacturers protocol (AMAXA). Forty eight hours post transfection, cells were trypsinized and transferred to 96 well plates in Iscove's DMEM media supplemented with 2 mM Glutamine, 10% fetal calf serum, 1 mg/ml geneticin and HT Supplement (0.1 mM sodium hypoxanthine, 0.016 mM thymidine) in order to isolate single clones. Following selection in geneticin, individual clones were selected and FAAH activity was assessed using a whole cell fluorescent anandamide assay, modified from Ramarao et al (2005). Following removal of tissue culture media cells were dislodged following addition of Cellstripper (Mediatech, Inc. Manassas, Va.) and transferred to 96 well black clear bottom assay plate, centrifuged at 1,000 rpm for 3 mins and media removed and replaced with assay buffer (50 mM Tris pH8.0, 1 mM EDTA, 0.1% fatty acid free BSA). The reaction was initiated by addition of fluorescent substrate, AMC Arachidonoyl Amide (Cayman Chemical, Ann Arbor, Mich.) to 1 μM and reaction allowed to proceed for 2 hours at room temperature. Release of fluorescence was monitored in a CytoFluor Multiplate Reader. Cells expressing the highest amount of FAAH activity were selected for study with FAAH inhibitors.
as §2

Compound | IC50 (human FAAH [1]) [nM] | IC50 (human FAAH [2]) [nM]
O=C(O)c1ccc(OCc2nc(-c3ccc(F)cc3)oc2Sc2ccc(Cl)cn2)cc1 [Example B2.11.1, 4-({5-[(5-chloropyridin-2-yl)sulfanyl]-2-(4-fluorophenyl)-1,3-oxazol-4-yl}methoxy)benzoic acid] | 59 | 253
CCNC(=O)c1ccc(OCc2nc(-c3ccc(F)cc3)oc2Sc2ccc(Cl)cn2)cc1 [Example B2.11.2, 4-({5-[(5-chloropyridin-2-yl)sulfanyl]-2-(4-fluorophenyl)-1,3-oxazol-4-yl}methoxy)-N-ethylbenzamide] | 3 | 14
O=C(NCC(F)(F)F)c1ccc(OCc2nc(-c3ccc(F)cc3)oc2Sc2ccc(Cl)cn2)cc1 [Example B2.11.5, 4-({5-[(5-chloropyridin-2-yl)sulfanyl]-2-(4-fluorophenyl)-1,3-oxazol-4-yl}methoxy)-N-(2,2,2-trifluoroethyl)benzamide] | 5 | 22
Cn1ncnc1COCc1nc(-c2ccc(F)cc2)oc1Sc1ccc(Cl)cn1 [Example B2.12, 5-chloro-2-{[2-(4-fluorophenyl)-4-{[(1-methyl-1H-1,2,4-triazol-5-yl)methoxy]methyl}-1,3-oxazol-5-yl]sulfanyl}pyridine] | 807 | 2150
Fc1ccc(-c2nc(COC3CCNCC3)c(Sc3ccc(Cl)cn3)o2)cc1 [Example B2.14, 5-chloro-2-({2-(4-fluorophenyl)-4-[(piperidin-4-yloxy)methyl]-1,3-oxazol-5-yl}sulfanyl)pyridine] | 902 | 3360
Fc1ccc(-c2nc(COC3CCOCC3)c(Sc3ccc(Cl)cn3)o2)cc1 [Example B2.15, 5-chloro-2-({2-(4-fluorophenyl)-4-[(tetrahydro-2H-pyran-4-yloxy)methyl]-1,3-oxazol-5-yl}sulfanyl)pyridine] | 88 | 343

The remaining compounds from weak to strong by IC50 (human FAAH [1]), led by results:

IC50 (human FAAH [1]) [nM] | IC50 (human FAAH [2]) [nM] | Compound
149 | 1450 | CN(C)C(=O)c1ccc(OCc2nc(-c3ccc(F)cc3)oc2Sc2ccc(Cl)cn2)cc1 [Example B2.11.3, 4-({5-[(5-chloropyridin-2-yl)sulfanyl]-2-(4-fluorophenyl)-1,3-oxazol-4-yl}methoxy)-N,N-dimethylbenzamide]
130 | 513 | OC(c1ccc(OCc2nc(-c3ccc(F)cc3)oc2Sc2ccc(Cl)cn2)cc1)C(F)(F)F (centres unmarked) [Example B2.8, 1-[4-({5-[(5-chloropyridin-2-yl)sulfanyl]-2-(4-fluorophenyl)-1,3-oxazol-4-yl}methoxy)phenyl]-2,2,2-trifluoroethanol]
56 | 298 | Fc1ccc(-c2nc(COc3ccc4[nH]ccc4c3)c(Sc3ccc(Cl)cn3)o2)cc1 [Example B2.10, 5-({5-[(5-chloropyridin-2-yl)sulfanyl]-2-(4-fluorophenyl)-1,3-oxazol-4-yl}methoxy)-1H-indole]
12 | 201 | CC(O)c1ccc(OCc2nc(-c3ccc(F)cc3)oc2Sc2ccc(Cl)cn2)cc1 (centres unmarked) [Example B2.7, 1-[4-({5-[(5-chloropyridin-2-yl)sulfanyl]-2-(4-fluorophenyl)-1,3-oxazol-4-yl}methoxy)phenyl]ethanol]
3 | 5 | CNC(=O)c1ccc(OCc2nc(-c3ccc(F)cc3)oc2Sc2ccc(Cl)cn2)cc1 [Example B2.11.4, 4-({5-[(5-chloropyridin-2-yl)sulfanyl]-2-(4-fluorophenyl)-1,3-oxazol-4-yl}methoxy)-N-methylbenzamide]
2 | 10 | COC(=O)c1ccc(OCc2nc(-c3ccc(F)cc3)oc2Sc2ccc(Cl)cn2)nc1 [Example B2.9, methyl 6-({5-[(5-chloropyridin-2-yl)sulfanyl]-2-(4-fluorophenyl)-1,3-oxazol-4-yl}methoxy)pyridine-3-carboxylate]
2 | 13 | COC(=O)c1ccc(OCc2nc(-c3ccc(F)cc3)oc2Sc2ccc(Cl)cn2)cc1 [Example B2.11, Methyl-4-({5-[(5-chloropyridin-2-yl)sulfanyl]-2-(4-fluorophenyl)-1,3-oxazol-4-yl}methoxy)benzoate]
